In US20050054025A1 (priority 2003, published 2005):
Converted amounts (≈) assume the structure as drawn. Marks after values point to notes of the source that are not given here.

Tests used:
[1] = target: acetylcholinesterase (Homo sapiens, UniProt P22303); experiment: biochemical; type: biochemical; details: for IC20: read-out: Porex Dot Test IC20
[2] = system: acetylcholinesterase; details: cited from earlier work

Chain of acetylcholinesterase (Homo sapiens, UniProt P22303) (P22303 32-614, species assumed): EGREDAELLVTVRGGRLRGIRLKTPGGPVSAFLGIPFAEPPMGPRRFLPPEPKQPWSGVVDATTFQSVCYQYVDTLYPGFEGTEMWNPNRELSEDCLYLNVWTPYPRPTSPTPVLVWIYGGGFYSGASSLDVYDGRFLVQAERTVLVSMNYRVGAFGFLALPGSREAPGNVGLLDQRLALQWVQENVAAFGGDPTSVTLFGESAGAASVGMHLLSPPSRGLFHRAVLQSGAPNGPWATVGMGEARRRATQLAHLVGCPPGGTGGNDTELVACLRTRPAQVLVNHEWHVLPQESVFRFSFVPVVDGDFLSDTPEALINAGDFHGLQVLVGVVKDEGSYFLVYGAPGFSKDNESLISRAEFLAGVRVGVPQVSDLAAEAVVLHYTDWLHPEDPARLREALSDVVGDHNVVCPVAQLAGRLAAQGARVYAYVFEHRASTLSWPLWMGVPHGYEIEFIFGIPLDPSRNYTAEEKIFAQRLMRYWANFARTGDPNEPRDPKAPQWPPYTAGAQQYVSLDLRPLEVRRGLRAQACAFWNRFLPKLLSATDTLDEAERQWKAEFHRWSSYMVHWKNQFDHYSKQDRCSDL

| Structure (SMILES) | IC20 [1] [ng/mL] | EnviroLogix IC20 [2] [μg/L] | further results |
| --- | --- | --- | --- |
| CNC(=O)O/N=C/C(C)(C)SC [Aldicarb] | 33 (≈ 173 nM) | – | – |
| CNC(=O)Oc1ccccc1OC(C)C [Baygon (propoxur), propoxur] | 9 (≈ 43 nM) | 50 | – |
| CNC(=O)Oc1cccc2ccccc12 [Carbaryl] | 9 (≈ 44.7 nM) | 110 | – |
| CNC(=O)Oc1cccc2c1OC(C)(C)C2 [Carbofuran] | 0.4 (≈ 1.81 nM) | 40 | – |
| CCOP(=S)(OCC)Oc1nc(Cl)c(Cl)cc1Cl [Chloropyrifos] | – | 5.2 | IC50 [1]: 0.285 nM |
| CCOP(=S)(OCC)Oc1cc(C)nc(C(C)C)n1 [Diazinon] | 0.14 (≈ 0.46 nM) | – | EnviroLogix IC50 (cells marked *) [2]: 3.0* μg/L |
| CCOP(=S)(OCC)SCCSCC [Disulfoton] | 0.5 (≈ 1.82 nM) | – | – |
| CCOC(=O)CC(SP(=S)(OC)OC)C(=O)OCC (stereo not drawn) [Malithion] | – | 60 | Porex Dot Test IC20 [1]: 0.11 ng/mL |
| CNC(=O)ON=C(C)SC [Methomyl] | 0.011 (≈ 0.0678 nM) | – | – |
| CNC(=O)O/N=C(\SC)C(=O)N(C)C [Oxymyl] | – | 100 | Porex Dot Test IC20 [1]: 16.7 ng/mL |
| CCOP(=O)(OCC)Oc1ccc([N+](=O)[O-])cc1 [Paraoxon] | – | – | detectable amount using instrument detection [1]: about 0.5 ng/mL; detectable level, determined visually [1]: 10 ng/mL |
| CCOP(=S)(OCC)SCSC(C)(C)C [Terbufos] | 143 (≈ 496 nM) | – | EnviroLogix IC50 (cells marked *) [2]: 12* μg/L |
